Results reported in patent US20240325521A1, “IONIZABLE LIPID COMPOUND FOR NUCLEIC ACID DELIVERY AND LNP COMPOSITION THEREOF” (priority 2021, published 2024).

Assays:
[1] = system: Hep3B cells; format: cell-based; details: compared with cationic lipids III and IV
[2] = Detection of novel coronavirus LNP-mRNA vaccine after encapsulation with different cationic lipids (encapsulation efficiency, particle size, PDI, Zeta potential); format: physicochemical; details: compared with control cationic lipids III and IV
[3] = 25° C., up to 4 weeks; compared with cationic lipids III and IV

## CCCCCCCCC(CCCCCC)COC(=O)OCCCCCCN(CCCCO)CCCCCCOC(=O)OCC(CCCCCC)CCCCCCCC (stereo not drawn) [Compound 1]
[1]
  in-vitro transfection efficiency: better
[2]
  encapsulation effect on mRNA antigen: better encapsulation effect
[3]
  stability of LNP-mRNAs prepared by the cationic lipid: better

## CCCCCCCCCCCOC(=O)OCCCCCN(CCO)CCCCCCCOC(=O)OC(CCCCCCCC)CCCCCCCC [Compound 2]
[1]
  in-vitro transfection efficiency: better
[2]
  encapsulation effect on mRNA antigen: better encapsulation effect
[3]
  stability of LNP-mRNAs prepared by the cationic lipid: better
